Results taken from patent US9737502B2, “Calebin A for hepatic steatosis” (SAMI LABS LIMITED, priority 2011, dated 2017).

What was measured:
[1] = tested on: Fully differentiated adipocytes; assay: Lipolysis (glycerol release) in fully differentiated adipocytes; format: cell-based, Mouse; details: fully differentiated adipocytes (8 days)
Procedure: Fully differentiated adipocytes (8 days) previously untreated with Calebin A as described in procedural steps outlined in Example IV were treated with Calebin A at concentrations of 5-30 μM. Lipolysis was linked to the breakdown of lipids into glycerol that was released into the cell culture medium and detected thereof. […] Thus, in another most preferred embodiment, the present invention relates to a method of inducing lipolysis in mammalian adipocytes, said method comprising the step of treating mammalian adipocytes with varying concentrations of Calebin A to bring about the effect of dose dependant lipolysis in said adipocytes. […] Epididymal fat pads were dissected and fixed in 10% buffered formalin for at least 24 hours, then dehydrated with a sequence of ethanol solutions and processed for embedding in paraffin. Sections of 5-6 μm in thickness were cut, de-paraffinized, rehydrated, stained with haematoxylin & eosin (H&E) and subjected to photomicroscopic assessment. Adipocyte size was determined using a Nikon light microscope (Japan) equipped with an ocular micrometer at 200× magnification in 10 random fields per section. […]

3T3-L1 preadipocytes = assay: Differentiation and adipogenesis of 3T3-L1 preadipocytes, Oil Red O (Example IV); format: cell-based, Mouse; details: 5, 10, 15, 20, 25 and 30 μM for 8 days
Procedure: Mouse 3T3-L1 pre-adipocytes purchased from the American Type Culture Collection (Rockville, Md.) were grown in Dulbecco's Modified Eagle's Medium (DMEM) supplemented with 2 mM glutamine (GIBCO BRL), 1% penicillin/streptomycin (10000 units of penicillin/mL and 10 mg streptomycin/mL) and 10% fetal calf serum (FCS) at 37° C. under a humidified 5% CO2 atmosphere. Briefly, cells were seeded into 24-well (2×10^4/mL) or 10 cm dish with DMEM containing 10% fetal bovine serum (FBS) to full confluence. […]
At the end of differentiation, cells were washed twice with phosphate-buffered saline (PBS), fixed with 10% formalin for 60 min, stained with 0.5% Oil Red O in isopropanol for 1 h at room temperature. […] To quantify lipid accumulation, the stained lipid droplets were dissolved in isopropanol and the absorbance was measured at 520 nm.
Differentiation of 3T3-L1 preadipocytes stained with Oil Red O and photographed (upper and middle). 3T3-L1 preadipocytes were incubated with MDI (DMEM with IBMX, DEX, and insulin) for 2 days and then replaced with DMEM containing insulin with or without Calebin A (0, 5, 10, 15, 20, 25 and 30 μM), respectively, for 8 days, Lipid content was extracted from Oil Red O stained cells by 2-propanol and quantified by spectrophotometric analysis at 520 nm.

adiponectin = assay: Study 2: serum adiponectin by ELISA in obese mice; format: in vivo, C57 mice; details: Study 2, end of study period
Procedure: Further, on completion of the study period blood samples were collected from all the animals in […] for estimation of systemic expression of leptin and adiponectin. Blood samples were collected humanely from retro-orbital plexus puncture method under mild ether anesthesia with the help of a fine capillary tube. The blood samples collected in tubes without anticoagulant were centrifuged at 3000 rpm for 10 minutes to obtain serum which was subjected to ELISA technique for the estimation of leptin and adiponectin. The import of leptin and adiponectin expression as biomarkers in obesity has been discussed in aforesaid paragraphs. […] Low systemic adiponectin levels have been cited as predictive factors in the progression of disease states like Type II Diabetes mellitus (Chamukuttan Snehalatha et al, “Plasma Adiponectin Is an Independent Predictor of Type 2 Diabetes in Asian Indians”, Diabetes Care December 2003 vol. 26 no. 12 3226-3229).

[2] = Study I: HFD-fed mice, diet supplementation 12 weeks; body weight, food intake, relative organ weights; details: for wt gain / Final wt / relative organ weight: Kidney / relative organ weight: liver: 12 weeks; for wt gain: HFD 16.50 ± 2.90; for Final wt: HFD 38.63 ± 3.92; for relative organ weight: Kidney / relative organ weight: liver: percentage of body weight; for Initial wt: baseline
Procedure: Male C57BL/6J mice at 5 weeks of age were purchased from the BioLASCO Experimental Animal Center (Taiwan Co., Ltd., Taipei, Taiwan) and housed in a controlled atmosphere (25±1° C. at 50% relative humidity) and with a 12-h light/12-h dark cycle. […] Animals had free access to food and water at all times. Food cups were replenished with fresh diet daily. The diet intake of animals was monitored every day and the body weight was recorded weekly. […] At the end of the study, all animals were fasted overnight and sacrificed by CO2 asphyxiation. Blood samples were collected from the heart for biochemical analysis. Liver, spleen, kidney and fat pads (perigonadal, retroperitoneal and mesenteric fat) were immediately removed, weighed (TABLE VI) and photographed. […] Body weight was monitored weekly, and the average body weight of each group was expressed as the mean±SE. Statistical analysis was done by Student's t test. (*) P<0.01, compared with ND group; (#) P<0.01, compared with HFD group.

TNF-α = assay: Estimation of TNF-α in adipocyte supernatant by ELISA; format: cell-based; details: human adipocytes
Procedure: (§1) 3T3-L1 cells approximately 60×10^4 cells are seeded for 48-72 hrs to get 70-80% confluence. After 48 hrs 200 μl of AIM (Adipogenesis induction medium) freshly prepared is added. 72 hrs later 200 μl APM (Adipogenesis progression medium) with the test compounds in different concentrations is added to the wells. The cells are incubated for 48 hrs in a humidified atmosphere (37° C.) of 5% CO2 and 95% air. The supernatant is collected and stored for the estimation of leptin, adiponectin, IL-6 and TNF-α by ELISA. Cells are fixed by adding 100 μl of 10% formalin and ORO staining is done. OD is read at 492 nm in microplate reader. The results are expressed as IC50 values using Graphpad prism software.
(§2) The percentage of inhibition of adipogenesis is calculated as follows, % inhibition=C−T/[…] Where C-absorbance of Oil red 0 in differentiating/undifferentiated cells T-absorbance of Oil Red-O in sample treated differentiating/undifferentiated cells. The estimation of leptin, adiponectin, IL-6 and TNF-α is done according to user's manual from R&D Systems.

IL-1β = assay: Extracellular IL-1β in LPS-stimulated murine neutrophils; format: cell-based; details: for IL-1β Concentration: LPS Control 51.80 ± 2.18
IL-6 = assay: Estimation of IL-6 in adipocyte supernatant by ELISA; format: cell-based; details: human adipocytes
Procedure: as §1, §2

## COc1cc(/C=C/C(=O)COC(=O)/C=C/c2ccc(O)c(OC)c2)ccc1O [Calebin A]
[1]; 30 μM
  release of glycerol into the medium (lipolysis): Glycerol was detected
[1]; 5-20 μM
  release of glycerol into the medium (lipolysis): did not bring about the release of glycerol
3T3-L1 preadipocytes
  differentiation and adipogenesis of 3T3-L1 preadipocytes: inhibits
adiponectin
  enhancing the adiponectin expression in the serum of obese animals: significant effect
[2]; HFD + 0.25% Calebin A
  wt gain: 13.02 ± 2.52 g
  Final wt: 35.28 ± 2.38 g
  relative organ weight: Kidney: 1.22 ± 0.12%
  relative organ weight: liver: 4.05 ± 0.28%
  Initial wt: 22.27 ± 0.49 g
[2]; HFD + 1% Calebin A
  wt gain: 10.12 ± 2.48 g
  Final wt: 31.99 ± 2.50 g
  relative organ weight: Kidney: 1.30 ± 0.15%
  relative organ weight: liver: 4.00 ± 0.25%
  Initial wt: 21.88 ± 0.91^ g
TNF-α; 0.5 μg/ml
  percentage inhibition of TNF-α: 36.03%
TNF-α; 1.0 μg/ml
  percentage inhibition of TNF-α: 40.81%
TNF-α; 2.0 μg/ml
  percentage inhibition of TNF-α: 45.47%
IL-1β; 0.5 μg/ml
  % Activity (suppression of IL-1 β expression): 20.38%↓
  IL-1β Concentration: 41.24 ± 1.16 pg/mL
IL-1β; 1.0 μg/ml
  % Activity (suppression of IL-1 β expression): 24.20%↓
  IL-1β Concentration: 39.26 ± 2.52 pg/mL
IL-1β; 2.0 μg/ml
  % Activity (suppression of IL-1 β expression): 28.26%↓
  IL-1β Concentration: 37.16 ± 2.11 pg/mL
IL-6; 0.5 μg/ml
  percentage inhibition of IL-6: 21.31%
IL-6; 1.0 μg/ml
  percentage inhibition of IL-6: 32.37%
IL-6; 2.0 μg/ml
  percentage inhibition of IL-6: 31.7%
